Experiments:
[1] = tested on: non-opiate medication-related constipation; test: Case Example 2: cetilistat for constipation related to amitriptyline (non-opiate medication); assay type: in vivo, human
Protocol: A person with fibromyalgia being treated with the tricyclic antidepressant, amitriptyline, suffered from a global pain disorder requiring pain management. They were of average weight, not over-weight. They were treated with amitriptyline that is a known therapeutic agent for mild to moderate fibromyalgia. This tricyclic antidepressant is also known for causing dry mouth, blurry vision and constipation.

[2] = tested on: lazy bowel and age-related constipation; test: Case Example 3: cetilistat for constipation in person (non-opiate medications, dehydration, lazy bowel); assay type: in vivo, human; details: cetilistat 60 mg twice daily
Text: Person living in a nursing home with mild dementia complained of painful bowel movements causing an anal fissure with bleeding in their rectum. The cause of their constipation was deemed to be due to a combination of non-opiate medications, dehydration, and a lazy bowel. The patient also complained of abdominal distention and some intermittent abdominal discomfort. The patient was not overweight. […] They had abdominal pain with conventional bowel stimulants. […] The cetilistat resolved the constipation in an acute case and allowed for long-term recovery from a constipation-related complication. Further, it was effective in the treatment of lazy bowel and age-related constipation.

[3] = tested on: constipation related to menstrual cycle; test: Case Example 6: cetilistat for constipation related to menstrual cycle; assay type: in vivo, human; details: cetilistat 60 mg oral once a day with food, as needed
Text: This is a case of a person who complained of recurring constipation related to their menstrual cycle. They noticed that a few days before the onset of their menstrual cycle and for the week of their menstrual cycle they develop constipation that aggravates their bloating and abdominal pain. They are not overweight. They have tried over-the-counter laxatives and tried some standard prescription laxatives that caused them to feel more bloated. […] Their doctor gave them a prescription of cetilistat (one 60 mg oral pill once a day with food) to be taken one to three days before the onset of their menstruation. In the fourth week of their period, they noticed normalization of their bowel movement and required to take the cetilistat only as needed. Often they only need to take it three times during their menstrual cycle. […] Typically, they required the cetilistat 3-7 days per cycle. […] Further, the cetilistat may be used as needed as a medication for constipation.

[4] = tested on: constipation related to deconditioning/bedridden; test: Case Example 8: orlistat for constipation related to being bedridden; assay type: in vivo, human
Protocol: His stools and bowel function gradually became more regular allowing for a reduction of dose of the orlistat (to one 120 mg oral pill twice per day with food) as maintenance.

[5] = tested on: chronic constipation after bowel resection/colostomy; test: Case Example 7: orlistat for constipation after partial bowel resection with colostomy; assay type: in vivo, human
Text: person suffering from bowel cancer was given a partial bowel resection with a colostomy and bag. They complained that since their bowel surgery they suffered chronic constipation and hard stools. […] It would sometimes be so hard it could injure and cause bleeding to the ostomy site.

[6] = tested on: irritable bowel syndrome and heartburn; test: Case Example 11: orlistat in person with irritable bowel syndrome and heartburn; assay type: in vivo, human; details: orlistat 120 mg, one per day on average
Text: This example relates to a person with a 20 year history of irritable bowel syndrome and heartburn. The person reported chronic abdominal pain with bloating, occasional constipation or diarrhea, and epigastric discomfort for over 20 years. They had four colonoscopies over that period of time, and 2 endoscopies of the stomach. […] They also had ultrasounds of the abdomen and pelvis which were normal. They had 2 chest x-rays and an MRI of the abdomen, each of which were normal. They were taking Losec™ for their heartburn which was controlled. They were also taking low dose Atenolol™ for their blood pressure as they had developed some minor hypertension. They were otherwise well. […] There were no masses, rebound or rigidity. There were no organs that were tender or enlarged. They complained of persistent heartburn despite being on Losec™ and abdominal pain. They were treated with orlistat (120 mg, twice a day each with a meal to be reduced or increased as required up to three per day). They reported that they only required one per day on average and occasionally a second tablet. […] They became more flexible in their abdomen and lower back. They were more comfortable in their walking. Thus, orlistat was useful to treat IBD.

[7] = tested on: opiate-related constipation
[8] = tested on: fibromyalgia, irritable bowel syndrome, chronic abdominal pain; test: Case Example 9: orlistat in fibromyalgia patient with irritable bowel syndrome; assay type: in vivo, human
Text: This case involves a person with a 15 year history of fibromyalgia. The person reported chronic pain involving the neck, lower back, migraine headaches, abdominal bloating, and constipation with occasional diarrhea. They had been diagnosed with fibromyalgia about 10 years prior, and had chronic abdominal pain, bloating and a formal diagnosis of irritable bowel syndrome. […] Serology, abdominal x-rays, ultrasound of the abdomen and pelvis, were normal. […] There were no masses or any signs of acute surgical abdomen. They were taking Lyrica™ 75 mg twice a day, Flexeril™ 10 mg twice a day as needed, Percocet™ 2 twice a day as needed, and Celebrex™ 200 mg once a day. They were given orlistat (120 mg, twice a day as needed to take with food), and they noted that their constipation resolved, their bloating resolved, their occasional diarrhea resolved, and their abdominal pain resolved.

[9] = tested on: irritable bowel syndrome, chronic abdominal pain; test: Case Example 10: orlistat in person with irritable bowel syndrome; assay type: in vivo, human; details: over 4 to 6 weeks
Text: This case involves a non-overweight person with a history of irritable bowel syndrome. The person reported chronic abdominal pain and bloating, minor occasional constipation, minor occasional diarrhea, and lower back pain for the past five years. They were otherwise well. They had 2 colonoscopies, and an ultrasound of the abdomen and pelvis, all of which were normal. They were also taking an oral dose of B12. They were on other medications as well. […] There was no rebound or rigidity. They had no enlargement of any organs. They had tenderness globally around their abdomen, tightness of the iliopsoas bilaterally and oblique muscles. Their bowels were tender, and they were chronically uncomfortable and in pain. They were treated with orlistat (120 mg, once or twice a day as needed with food). […] They felt generally better, and was able to stop taking vitamin B12 because the absorption of […] B12 improved with their improved bowel function. Thus, orlistat was useful to treat IBD.

[10] = tested on: constipation related to dehydration, post-gastroenteritis; test: Case Example 4: orlistat for constipation related to post-infection and dehydration; assay type: in vivo, human
Protocol: A person travelled to Mexico and while there developed acute gastroenteritis. The patient was of average weight (not overweight). They began experiencing vomiting and diarrhea while there. They became dehydrated and eventually was transferred to their home in Canada. The virus had cleared one day after arriving back in Canada. They began eating and drinking but had developed constipation related to post-infection and dehydration. They were given orlistat (120 mg orally once daily with food) by their doctor for one week and this resolved their constipation within 24 hours. […] The improvement was such that after seven days that when they stopped the medication (orlistat), they were able to return to their normal diet.

[11] = tested on: paralytic bowel, chronic constipation; test: Case Example 5: orlistat for paralytic bowel after spinal cord transection; assay type: in vivo, human; details: orlistat 120 mg three times a day with food
Text: A person of average weight (not overweight) suffered a thoracic spinal injury with transection of the spinal cord resulting in complete paralysis below the third thoracic vertebrae. They went on to develop full paralysis of their muscles below T-3 including the skeletal muscles and smooth muscles of the gut. They developed a paralytic bowel contributing to chronic constipation with overflow and diarrhea. They required regular manual disempaction and Fleet enemas to manage their chronic constipation. The patient was given orlistat (120 mg one pill three times a day with food) by their doctor.

[12] = orlistat 120 mg twice a day as needed with food
[13] = orlistat 120 mg once or twice a day

With `CCCCCCCCCCCCCCCCOc1nc2ccc(C)cc2c(=O)o1` [cetilistat] the side effects reported ([1]; cetilistat 60 mg once per day, one year) was “no major side effects”, the “time to bowel movement” value ([1]; cetilistat 60 mg orally once per day with food, patient on amitriptyline) was no more than 24 h and the “bowel movements on continued daily treatment” value ([1]; cetilistat one pill per day) was “regular bowel movements daily”. For the same compound, the “outcome after a year of amitriptyline and cetilistat” value ([1]; one year) was “good success with treatment of fibromyalgia and daily bowel movements”, the “abdominal bloating and abdominal pain” value [2] was “resolved” and the bowel movement regularity [2] was “regular bowel movements daily”. The “quality of the bowel movement” value [2] was “painless and soft”, the “anal fissure and rectal bleeding” value ([2]; over two weeks) was “the anal fissure had healed and the bleeding had stopped” and the “relief of constipation on days of use” value [3] was “good relief of their constipation with regular, soft bowel movements”.

`CCCCCCCCCCC[C@@H](C[C@@H]1OC(=O)[C@H]1CCCCCC)OC(=O)[C@H](CC(C)C)NC=O` [orlistat] was tested, and the “stool and bowel movements” value ([4]; orlistat 120 mg once a day increased to three times per day with food, then twice per day as maintenance) was “softening of their stool, and the formation of regular bowel movements daily”, the “need for Fleet enemas and disempaction” value ([4]; orlistat, maintenance 120 mg twice per day) was “cessation of the Fleet enemas and the disempaction” and the abdominal pain ([5]; orlistat 120 mg once daily) was “no longer had abdominal pain”. The bloating ([5]; orlistat 120 mg once daily) was “greatly improved”, the stool consistency ([5]; orlistat 120 mg once daily) was “softened their stool” and the “average bowel movement frequency” value ([5]; orlistat 120 mg orally once daily with food) was “once a day”. For the same compound, the bloating [6] was “great improvement of their bloating”, the “abdominal pain and heartburn” value ([6]; over 4 to 6 weeks) was “great improvement of their abdominal pain and heartburn” and the “time to noticed improvement of constipation” value ([7]; orlistat 120 mg BID orally with food, patient on MS Contin 60 mg BID) was no more than 24 h. For the same compound, the “bowel movements within one week” value ([7]; orlistat 120 mg BID orally with food, within one week) was “daily bowel movements”, the “bowel movements over one year of treatment” value ([7]; orlistat 120 mg BID, one year) was “good well-formed bowel movements most days” and the side effects reported ([7]; orlistat 120 mg BID, one year) was “no major side effects”. For the same compound, the long-term outcome ([8]; combined medication for over two years) was “sustained good results”, the abdominal pain [8, 12] was “resolved” and the bloating [8, 12] was “resolved”. For the same compound, the occasional diarrhea [8, 12] was “resolved”, the overall fibromyalgia [8, 12] was “improvement in their overall fibromyalgia” and the constipation ([8]; orlistat 120 mg twice a day as needed with food, with Lyrica, Flexeril, Percocet, Celebrex) was “resolved”. For the same compound, the bloating ([9]; orlistat 120 mg once or twice a day as needed with food) was “reduced bloating”, the abdominal pain [9, 13] was “resolution of their abdominal pain” and the diarrhea [9, 13] was “no episodes of diarrhea”. For the same compound, the “muscles of abdomen and lower back” value [9, 13] was “relaxation of the muscles of their abdomen and lower back”, the “straining with bowel movements” value [9, 13] was “less straining with bowel movements” and the “bowel movements after cessation” value ([10]; after stopping orlistat at seven days) was “continue to be normal”. For the same compound, the “bowel movements on treatment” value ([10]; orlistat 120 mg once daily) was “normal and regular”, the “time to resolution of constipation” value ([10]; orlistat 120 mg orally once daily with food for one week) was no more than 24 h and the bowel formation [11] was “long-term improvement in bowel formation”. For the same compound, the bowel movements [11] was “soft and allowing for more regular, daily movements” and the “need for enemas and manual disempaction” value [11] was “significant reduction of therapeutic enemas and manual disempaction”.

From patent US9616066B2, “Therapy for constipation” (priority 2012, dated 2017)
